Assay results published in US20250360167A1 (Keryx Biopharmaceuticals, Inc., priority 2013, published 2025).

What was measured:
Type in all cases: in vivo, human
[1] = test system: Product Of Calcium And Phosphorus; assay: Phase 3 trial (Example 1): phosphorus times calcium product
Description: (§1) Serum phosphorus and calcium were performed at Screening (Visit 0); weekly during the Washout Period after Visit 1 (Week −2); at Visit 4 (Randomization Visit); at Visits 5 (Week 1), 6 (Week 2), 7 (Week 4), 8 (Week 6), 9 (Week 8), 10 (Week 10), 11 (Week 12), 12 (Week 16), 13 (Week 20), 14 (Week 24), 15 (Week 28), 16 (Week 32), 17 (Week 36), 18 (Week 40), 19 (Week 44), 20 (Week 48), and 21 (Week 52) of the 52-week Safety Assessment Period; and at Visits 22 (Week 53), 23 (Week 54), 24 (Week 55) and 25 (Week 56) of the Efficacy Assessment Period.
(§2) These variables will be analyzed using LOCF methodology. ANCOVA will be employed. The model will include treatment (fixed effect), and Visit-4 baseline (covariate). An analysis using MMRM method will be conducted as a sensitivity analysis. The least square mean estimates of the treatment effects as well as the 2-sided 95% confidence intervals (CI) of the treatment effects will be derived.
(§3) • 1. Change in serum calcium concentration at Weeks 12, 24, 36, 48, and 52 as compared to baseline (Visit 4). This variable will be analyzed using LOCF methodology. ANCOVA will be employed. The model will include treatment (fixed effect), and baseline (covariate). • 2. Change in ferritin, and TSAT at Weeks 12, 24, 36 and 48 as compared to baseline (Visit 4). This variable will be analyzed using LOCF methodology. ANCOVA will be employed. The model will include treatment (fixed effect), and baseline (covariate). • 3. Change in serum iron and TIBC at Weeks 12, 24, 36, 48, and 52 as compared to baseline (Visit 4). This variable will be analyzed using LOCF methodology. ANCOVA will be employed. The model will include treatment (fixed effect), and baseline (covariate). • 4. Change in Ca x P product at Weeks 12, 24, 36, 48, and 52 as compared to baseline (Visit 4). This variable will be analyzed using LOCF methodology. ANCOVA will be employed. The model will include treatment (fixed effect), and baseline (covariate). • 5. Change in iPTH at Weeks 12, 36, 52, and 56 as compared to baseline (Visit 4). This variable will be analyzed using LOCF methodology. ANCOVA will be employed. The model will include treatment (fixed effect), and baseline (covariate). • 6. Change in serum […], vitamin A, vitamin B-12, vitamin E, vitamin K and folic acid at Weeks 12, 36, and 52 as compared to baseline (Visit 4). This variable will be analyzed using LOCF methodology. ANCOVA will be employed. The model will include treatment (fixed effect), and baseline (covariate). • 7. Change in serum bicarbonate concentration at Weeks 12, 36, and 52 as compared to baseline (Visit 4). This variable will be analyzed using LOCF methodology. ANCOVA will be employed. The model will include treatment (fixed effect), and baseline (covariate). • 8. Change in IV iron intake at Weeks 12, 24, 36, 48, and 52 as compared to baseline (Visit 4). This variable will be analyzed using LOCF methodology. ANCOVA will be employed. The model will include treatment (fixed effect), and baseline (covariate). • 9. Change in the use of EPO (ESA) administered at Weeks 12, 24, 36, 48, and 52 as compared to baseline (Visit 4). This variable will be analyzed using LOCF methodology. ANCOVA will be employed. The model will include treatment (fixed effect), and baseline (covariate). • 10. Change in the use of Vitamin D supplementation (and its analogs) and Sensipar (cinacalcet) at Weeks 12, 24, 36, 48, and 52 as compared to baseline (Visit 4). This variable will be analyzed using LOCF methodology. ANCOVA will be employed. The model will include treatment (fixed effect), and baseline (covariate). • 11. Change in LDL, HDL, and triglycerides at Weeks 12, 36, and 52 as compared to baseline (Visit 4). This variable will be analyzed using LOCF methodology. ANCOVA will be employed. The model will include treatment (fixed effect), and baseline (covariate).

serum calcium = assay: Phase 3 trial (Example 1): serum calcium
Description: as §1, §2, §3

[2] = Phase 3 trial (Example 1): cumulative EPO (ESA) administered to Week 52
From the text: The cumulative EPO (ESA) administrated from randomization to Week 52 will be compared between treatment groups. This variable will be similarly analyzed as the primary efficacy variable using ANCOVA method. The two-sided 95% confidence intervals of treatment differences for all above comparisons will be presented.

[3] = Phase 2 trial (Example 2): treatment failures; conditions: two consecutive visits; 12-week treatment period
Description: If a subject has a serum phosphorus ≥6.0 mg/dL for at least two visits in a row during the 12-week treatment period, the subject is considered a treatment failure, stops study drug and exits the study.
The use of IV iron and erythropoietin stimulating agents (ESAs) is not permitted during the two-week washout and 12-week treatment periods. If a subject's hemoglobin level (Hgb) is <9.0 g/dL during the two-week washout, the subject is a screen failure. If a subject's Hgb is <9.0 g/dL for at least two visits in a row during the 12-week treatment period, the subject is considered a treatment failure, stops study drug and exits the study.
Patients were discontinued from the study if they had hemoglobin measurements <9.0 g/dL on two consecutive visits or serum phosphorus measurements ≥6.0 mg/dL on two consecutive visits following randomization.

[4] = Phase 2 trial (Example 2): safety and tolerability
Description: The safety population in the study included all randomized patients who took at least one dose of study drug.
Serious adverse events occurred in six KRX-0502 subjects (8%) versus ten placebo subjects (14%). Two deaths were recorded in the study, both from the placebo group.

[5] = Week 12, control = sevelamer carbonate as a single agent

iron (+3), x (1, 2, 3-propanetricarboxylic acid, 2-hydroxy-), y (H2O) [KRX-0502]
Product Of Calcium And Phosphorus, Mean ([1]; Baseline, Table 12): 65.4075 | Product Of Calcium And Phosphorus, Median ([1]; Baseline, Table 12): 62.7000 | Product Of Calcium And Phosphorus, Week 12 Change from Baseline, Mean ([1]; Table 12): −16.5635 | Product Of Calcium And Phosphorus, Week 12 Change from Baseline, Median ([1]; Table 12): −16.7400 | Product Of Calcium And Phosphorus, LS Mean ([1]; Week 12, ANCOVA, Table 12): 48.97 | Product Of Calcium And Phosphorus, Mean ([1]; Week 12, Table 12): 48.8440 | Product Of Calcium And Phosphorus, Median ([1]; Week 12, Table 12): 47.5000 | Product Of Calcium And Phosphorus, Treatment Differences, LS Mean (KRX-0502) − LS Mean (Control) [1, 5]: 1.45 | Calcium, Mean (serum calcium; Baseline, Table 12): 8.843 mg/dL | Calcium, Median (serum calcium; Baseline, Table 12): 8.900 mg/dL | Calcium, Week 12 Change from Baseline, Mean (serum calcium; Table 12): 0.245 mg/dL | Calcium, Week 12 Change from Baseline, Median (serum calcium; Table 12): 0.200 mg/dL | Calcium, LS Mean (serum calcium; Week 12, ANCOVA, Table 12): 9.11 mg/dL | Calcium, Mean (serum calcium; Week 12, Table 12): 9.089 mg/dL | Calcium, Median (serum calcium; Week 12, Table 12): 9.100 mg/dL | Calcium, Treatment Differences, LS Mean (KRX-0502) − LS Mean (Control) (serum calcium; [5]): -0.04 mg/dL | Average Daily EPO (ESA) intake based on the Cumulative EPO (ESA) intake to week 52 (Visit 4-21), Median ([2]; Safety Assessment Period, Full Analysis Population, Method 1 to handle overlapping doses): 724.24 | Average Daily EPO (ESA) intake based on the Cumulative EPO (ESA) intake to week 52 (Visit 4-21), Mean ([2]; Safety Assessment Period, Full Analysis Population, Method 1 to handle overlapping doses, SD in the next cell): 1077.67 | decrease in median ESA intake ([2]; administered over a period of 52 weeks, stated as embodiment): 27.1% | Treatment Failures (n), Hemoglobin <9.0 g/dL [3]: 1 | Treatment Failures (n), Serum Phosphorus ≥6.0 mg/dL [3]: 0 | differences in serum calcium levels and liver enzymes (ALT, AST) ([4]; KRX-0502 vs placebo): no clinically meaningful or statistically significant differences | Serious adverse events, % of subjects ([4]; Phase 2 study): 8% | Serious adverse events, number of subjects ([4]; Phase 2 study): six | study discontinuations due to hypophosphatemia ([4]; Phase 2 study): no study discontinuations due to hypophosphatemia | safety and tolerability ([4]; Phase 2 study, safety population): safe and well-tolerated | discontinuation rates ([4]; including Treatment Failures): 19%
